# Laboratory results as given in ChEMBL document CHEMBL3885861, “Open TG-GATES”.
# Organism: Rattus norvegicus
# Experiment: Open TG-GATES - Regimen: Daily Repeat
# Format: toxicity, organism-based, Sprague-Dawley
# Design: regimen Daily Repeat, gender Male, age 6 weeks
# Settings: in vivo, po, 1000 mg/kg, route gavage, dose level High; for APTT / Bas / Eos / Fbg / Hb / Ht / Lym / MCH / MCHC / MCV / Mono / Neu / PT / Plat / RBC / Ret / WBC: tissue Blood; for KIDNEY_L / KIDNEY_R / KIDNEY_TOTAL: tissue Kidney; for LIVER: tissue Liver; for A/G / ALP / ALT / AST / BUN / CRE / Ca / Cl / DBIL / GLC / IP / K / LDH / Na / PL / RALB / TBIL / TC / TG / TP / gamma-GTP: tissue Plasma
smiles,measurement,setting,value
CCOc1ccc(NC(=O)CC(C)O)cc1 (configuration not stated) [BUCETIN],TERMINAL_BW,"72 h, time 3 day",228.7 g
same,APTT,"72 h, time 3 day",18.5 s
same,Bas,"72 h, time 3 day",0%
same,Eos,"72 h, time 3 day",0.8%
same,Fbg,"72 h, time 3 day",270.2 mg/dL
same,Hb,"72 h, time 3 day",12.8 g/dL
same,Ht,"72 h, time 3 day",38.4%
same,Lym,"72 h, time 3 day",72.6%
same,MCH,"72 h, time 3 day",20.7 pg
same,MCHC,"72 h, time 3 day",33.4%
same,MCV,"72 h, time 3 day",61.9 fL
same,Mono,"72 h, time 3 day",2.8%
same,Neu,"72 h, time 3 day",22.6%
same,PT,"72 h, time 3 day",14.1 s
same,Plat,"72 h, time 3 day",123.8 x10_4/uL
same,RBC,"72 h, time 3 day",620 x10_4/ul
same,Ret,"72 h, time 3 day",2.9%
same,WBC,"72 h, time 3 day",111.1 x10_2/uL
same,KIDNEY_L,"72 h, time 3 day",1.1 g
same,KIDNEY_R,"72 h, time 3 day",1 g
same,KIDNEY_TOTAL,"72 h, time 3 day",2.1 g
same,LIVER,"72 h, time 3 day",11.8 g
same,A/G,"72 h, time 3 day",0.9
same,ALP,"72 h, time 3 day",1511.6 IU/L
same,ALT,"72 h, time 3 day",41.2 IU/L
same,AST,"72 h, time 3 day",74 IU/L
same,BUN,"72 h, time 3 day",15.4 mg/dL
same,CRE,"72 h, time 3 day",0.2 mg/dL
same,Ca,"72 h, time 3 day",10.6 mg/dL
same,Cl,"72 h, time 3 day",106.8 meq/L
same,DBIL,"72 h, time 3 day",0.028 mg/dL
same,GLC,"72 h, time 3 day",168 mg/dL
same,IP,"72 h, time 3 day",6.2 mg/dL
same,K,"72 h, time 3 day",4.3 meq/L
same,LDH,"72 h, time 3 day",76 IU/L
same,Na,"72 h, time 3 day",144.6 meq/L
same,PL,"72 h, time 3 day",161.4 mg/dL
same,RALB,"72 h, time 3 day",2.6 g/dL
same,TBIL,"72 h, time 3 day",0.06 mg/dL
same,TC,"72 h, time 3 day",78.6 mg/dL
same,TG,"72 h, time 3 day",102.2 mg/dL
same,TP,"72 h, time 3 day",5.6 g/dL
same,gamma-GTP,"72 h, time 3 day",1.2 IU/L
same,TERMINAL_BW,"[…], time 7 day",268.8 g
same,TERMINAL_BW,"[…], time 14 day",329.1 g
same,TERMINAL_BW,"[…], time 28 day",402.4 g
same,APTT,"[…], time 7 day",20.3 s
same,Bas,"[…], time 7 day",0%
same,Eos,"[…], time 7 day",1%
same,Fbg,"[…], time 7 day",270.6 mg/dL
same,Hb,"[…], time 7 day",12.7 g/dL
same,Ht,"[…], time 7 day",38.7%
same,Lym,"[…], time 7 day",67.2%
same,MCH,"[…], time 7 day",21 pg
same,MCHC,"[…], time 7 day",32.9%
same,MCV,"[…], time 7 day",64 fL
same,Mono,"[…], time 7 day",3.4%
same,Neu,"[…], time 7 day",27.6%
same,PT,"[…], time 7 day",14.3 s
same,Plat,"[…], time 7 day",126.9 x10_4/uL
same,RBC,"[…], time 7 day",606 x10_4/ul
same,Ret,"[…], time 7 day",9.2%
same,WBC,"[…], time 7 day",166.9 x10_2/uL
same,APTT,"[…], time 14 day",21.6 s
same,Bas,"[…], time 14 day",0.8%
same,Eos,"[…], time 14 day",0.6%
same,Fbg,"[…], time 14 day",295.4 mg/dL
same,Hb,"[…], time 14 day",12.9 g/dL
same,Ht,"[…], time 14 day",39.7%
same,Lym,"[…], time 14 day",69.2%
same,MCH,"[…], time 14 day",22.9 pg
same,MCHC,"[…], time 14 day",32.7%
same,MCV,"[…], time 14 day",70.1 fL
same,Mono,"[…], time 14 day",3%
same,Neu,"[…], time 14 day",26.2%
same,PT,"[…], time 14 day",14.3 s
same,Plat,"[…], time 14 day",126.3 x10_4/uL
same,RBC,"[…], time 14 day",567.8 x10_4/ul
same,Ret,"[…], time 14 day",10.4%
same,WBC,"[…], time 14 day",123.6 x10_2/uL
same,APTT,"[…], time 28 day",19.3 s
same,Bas,"[…], time 28 day",0.6%
same,Eos,"[…], time 28 day",1.2%
same,Fbg,"[…], time 28 day",278.2 mg/dL
same,Hb,"[…], time 28 day",14.3 g/dL
same,Ht,"[…], time 28 day",42.1%
same,Lym,"[…], time 28 day",78.2%
same,MCH,"[…], time 28 day",23.2 pg
same,MCHC,"[…], time 28 day",34%
same,MCV,"[…], time 28 day",68.4 fL
same,Mono,"[…], time 28 day",2.2%
same,Neu,"[…], time 28 day",17.4%
same,PT,"[…], time 28 day",14.4 s
same,Plat,"[…], time 28 day",102.2 x10_4/uL
same,RBC,"[…], time 28 day",618.4 x10_4/ul
same,Ret,"[…], time 28 day",8%
same,WBC,"[…], time 28 day",137.4 x10_2/uL
same,KIDNEY_L,"[…], time 7 day",1.1 g
same,KIDNEY_R,"[…], time 7 day",1.1 g
same,KIDNEY_TOTAL,"[…], time 7 day",2.3 g
same,KIDNEY_L,"[…], time 14 day",1.3 g
same,KIDNEY_R,"[…], time 14 day",1.3 g
same,KIDNEY_TOTAL,"[…], time 14 day",2.7 g
same,KIDNEY_L,"[…], time 28 day",1.6 g
same,KIDNEY_R,"[…], time 28 day",1.5 g
same,KIDNEY_TOTAL,"[…], time 28 day",3.1 g
same,LIVER,"[…], time 7 day",12.7 g
same,LIVER,"[…], time 14 day",14.6 g
same,LIVER,"[…], time 28 day",17.3 g
same,A/G,"[…], time 7 day",0.8
same,ALP,"[…], time 7 day",1387.6 IU/L
same,ALT,"[…], time 7 day",50 IU/L
same,AST,"[…], time 7 day",79.4 IU/L
same,BUN,"[…], time 7 day",16 mg/dL
same,CRE,"[…], time 7 day",0.2 mg/dL
same,Ca,"[…], time 7 day",10.9 mg/dL
same,Cl,"[…], time 7 day",106.2 meq/L
same,DBIL,"[…], time 7 day",0.032 mg/dL
same,GLC,"[…], time 7 day",180.8 mg/dL
same,IP,"[…], time 7 day",6.6 mg/dL
same,K,"[…], time 7 day",4.4 meq/L
same,LDH,"[…], time 7 day",97.4 IU/L
same,Na,"[…], time 7 day",144.4 meq/L
same,PL,"[…], time 7 day",162.8 mg/dL
same,RALB,"[…], time 7 day",2.8 g/dL
same,TBIL,"[…], time 7 day",0.08 mg/dL
same,TC,"[…], time 7 day",74.6 mg/dL
same,TG,"[…], time 7 day",133.4 mg/dL
same,TP,"[…], time 7 day",6 g/dL
same,gamma-GTP,"[…], time 7 day",1 IU/L
same,A/G,"[…], time 14 day",0.8
same,ALP,"[…], time 14 day",1241.8 IU/L
same,ALT,"[…], time 14 day",42.6 IU/L
same,AST,"[…], time 14 day",73.4 IU/L
same,BUN,"[…], time 14 day",14.2 mg/dL
same,CRE,"[…], time 14 day",0.2 mg/dL
same,Ca,"[…], time 14 day",10.8 mg/dL
same,Cl,"[…], time 14 day",105.8 meq/L
same,DBIL,"[…], time 14 day",0.036 mg/dL
same,GLC,"[…], time 14 day",170.4 mg/dL
same,IP,"[…], time 14 day",6.5 mg/dL
same,K,"[…], time 14 day",4.4 meq/L
same,LDH,"[…], time 14 day",97.8 IU/L
same,Na,"[…], time 14 day",143.6 meq/L
same,PL,"[…], time 14 day",150.8 mg/dL
same,RALB,"[…], time 14 day",2.8 g/dL
same,TBIL,"[…], time 14 day",0.1 mg/dL
same,TC,"[…], time 14 day",71.6 mg/dL
same,TG,"[…], time 14 day",91.2 mg/dL
same,TP,"[…], time 14 day",6.1 g/dL
same,gamma-GTP,"[…], time 14 day",1 IU/L
same,A/G,"[…], time 28 day",0.8
same,ALP,"[…], time 28 day",1352.6 IU/L
same,ALT,"[…], time 28 day",36.4 IU/L
same,AST,"[…], time 28 day",65 IU/L
same,BUN,"[…], time 28 day",16.8 mg/dL
same,CRE,"[…], time 28 day",0.3 mg/dL
same,Ca,"[…], time 28 day",11 mg/dL
same,Cl,"[…], time 28 day",104 meq/L
same,DBIL,"[…], time 28 day",0.042 mg/dL
same,GLC,"[…], time 28 day",182.2 mg/dL
same,IP,"[…], time 28 day",6.5 mg/dL
same,K,"[…], time 28 day",4 meq/L
same,LDH,"[…], time 28 day",93.4 IU/L
same,Na,"[…], time 28 day",143.8 meq/L
same,PL,"[…], time 28 day",155.8 mg/dL
same,RALB,"[…], time 28 day",2.9 g/dL
same,TBIL,"[…], time 28 day",0.1 mg/dL
same,TC,"[…], time 28 day",71.2 mg/dL
same,TG,"[…], time 28 day",117.2 mg/dL
same,TP,"[…], time 28 day",6.4 g/dL
same,gamma-GTP,"[…], time 28 day",1.4 IU/L
